Activity calls are given as the source filed them.

Usually IC50 stands for the concentration at which inhibition is half-maximal. As usually defined, the EC50 is the concentration giving half of the maximal effect. As usually defined, the AC50 is the midpoint of the concentration-response curve, whichever way the signal moves. What is called Ki is a measure of affinity in units of concentration, obtained from inhibition or displacement.

For experiment [1], the target named is T1, High affinity choline transporter 1 (Homo sapiens, UniProt Q9GZV3).
T1 sequence (Q9GZV3 whole entry): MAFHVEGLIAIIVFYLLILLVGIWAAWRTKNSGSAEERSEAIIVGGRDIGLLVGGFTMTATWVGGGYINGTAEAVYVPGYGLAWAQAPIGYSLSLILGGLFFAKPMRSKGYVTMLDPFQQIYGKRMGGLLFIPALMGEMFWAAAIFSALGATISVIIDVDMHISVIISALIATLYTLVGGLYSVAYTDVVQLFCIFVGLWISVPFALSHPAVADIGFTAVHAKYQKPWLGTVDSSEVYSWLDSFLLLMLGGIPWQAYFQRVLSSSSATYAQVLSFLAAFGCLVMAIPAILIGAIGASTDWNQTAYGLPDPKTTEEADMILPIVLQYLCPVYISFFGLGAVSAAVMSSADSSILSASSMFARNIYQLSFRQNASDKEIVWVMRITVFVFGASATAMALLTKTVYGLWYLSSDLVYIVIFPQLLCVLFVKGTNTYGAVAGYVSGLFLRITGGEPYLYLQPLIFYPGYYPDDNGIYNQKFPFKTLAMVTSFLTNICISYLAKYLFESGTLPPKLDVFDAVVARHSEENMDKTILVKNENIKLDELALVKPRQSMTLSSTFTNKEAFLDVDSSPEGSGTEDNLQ
In words: CHT inhibitors, dose response, cell-based, 5-point CRC, membrane potential dye (AID 504840). Type of experiment: functional.

For experiment [2], the target named is T1, High affinity choline transporter 1. The experiment is described as follows: CHT inhibitors, dose response, cell-based, 10-point CRC, membrane potential dye (AID 588401).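 Also: membrane potential dye fluorescence of choline-evoked depolarization via CHT.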 Type of experiment: functional.
The nature of experiment [3]: cytotoxicity in HPDE-C7 cells, cell-based, fluorescence, HTS (AID 430). Type of experiment: functional. The note with it: Homo sapiens.
Experiment [4] in a line: cytotoxicity in KRAS-transformed pancreatic duct cells, primary screen, cell-based, fluorescence, HTS (AID 431).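 Also: cell line used: HPDE-C7K.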 The note with it: Homo sapiens. In kind it is functional.
In experiment [5] the target is Protein disulfide-isomerase (Homo sapiens, UniProt P07237). In words: PDI inhibitors, insulin aggregation turbidity, dose response, biochemical, absorbance, cherry-picked samples (AID 602350). Type of experiment: functional.
Protein disulfide-isomerase, sequence (P07237 whole entry): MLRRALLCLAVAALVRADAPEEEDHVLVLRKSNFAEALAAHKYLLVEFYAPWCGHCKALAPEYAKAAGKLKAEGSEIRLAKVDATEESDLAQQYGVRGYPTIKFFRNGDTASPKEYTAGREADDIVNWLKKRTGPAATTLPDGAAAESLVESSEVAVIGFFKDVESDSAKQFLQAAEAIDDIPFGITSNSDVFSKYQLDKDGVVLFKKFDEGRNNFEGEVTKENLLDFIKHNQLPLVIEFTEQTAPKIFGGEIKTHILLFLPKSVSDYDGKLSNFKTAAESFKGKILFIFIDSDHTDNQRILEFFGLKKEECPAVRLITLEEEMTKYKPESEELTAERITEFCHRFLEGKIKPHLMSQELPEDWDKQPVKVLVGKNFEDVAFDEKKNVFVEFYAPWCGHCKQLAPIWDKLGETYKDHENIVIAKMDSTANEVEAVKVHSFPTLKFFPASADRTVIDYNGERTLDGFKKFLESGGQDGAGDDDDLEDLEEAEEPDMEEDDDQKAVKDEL
Another experiment has as its target Paired box protein Pax-8 (Homo sapiens, UniProt Q06710). The experiment is described as follows: inhibitors of PAX8-driven TPO luciferase reporter, dose response, RMG-I cells, cherry-pick (AID 687027).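 Also: luciferase reporter driven by Pax8 target thyroperoxidase promoter measured by SteadyGlo luminescence.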 In kind it is functional, cell-based. (In general: A reporter such as luciferase makes a cellular process visible.)
Experiment [6] can be described thus: inhibitors of PGC1a acetylation in cells, dose response, cell-based, cherry-picked samples (AID 720514).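 Also: potency may reflect raised or lowered acetylation signal.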 Type of experiment: functional.
For experiment [7], the system named is BJ. In words: cytotoxicity toward BJ-TERT fibroblasts, dose response, cell-based, RAS-independent, luminescence (AID 1933). Type of experiment: functional. The note with it: Homo sapiens.
Experiment [8] has as its system BJ. In words: cells. Type of experiment: functional, cell-based. The note with it: Homo sapiens.
Experiment [9] is described as follows: cytotoxicity toward DRD oncogenic fibroblasts, dose response, cell-based, non-viral oncogenic, luminescence (AID 1934). In kind it is functional. Particulars: Homo sapiens.
The next experiment has as its system CHO-K1. The experiment is described as follows: Counterscreen for antagonists of the orexin 1 receptor (OX1R; HCRTR1): Homogeneous time resolved fluorescence (HTRF)-based cell-based dose response assay to identify antagonists of the parental CHO-K1 cell line. [Related pubchem assays (depositor defined):AID434989, AID435008, AID463079, AID485270, AID492963, AID492964, AID492965, AID493232, AID504699, AID504701]. Type of experiment: functional. Particulars: Cricetulus griseus. (In general: The purpose of a counterscreen is to sort out artefacts and off-target activity.);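 also: potency for inhibition of ATP-stimulated IP1 production as antagonists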

The nature of experiment [10]: Counterscreen for antagonists of the orexin 1 receptor (OX1R; HCRTR1): Fluorescence-based cell-based high throughput dose response assay to identify antagonists of the parental CHO cell line. [Related pubchem assays (depositor defined):AID434989, AID435008, AID463079, AID485270, AID492963, AID492964, AID492965, AID493232, AID504699, AID504701]. In kind it is functional.

The target in experiment [11] is T2, Orexin/Hypocretin receptor type 1 (Homo sapiens, UniProt O43613).
T2 sequence (O43613 whole entry): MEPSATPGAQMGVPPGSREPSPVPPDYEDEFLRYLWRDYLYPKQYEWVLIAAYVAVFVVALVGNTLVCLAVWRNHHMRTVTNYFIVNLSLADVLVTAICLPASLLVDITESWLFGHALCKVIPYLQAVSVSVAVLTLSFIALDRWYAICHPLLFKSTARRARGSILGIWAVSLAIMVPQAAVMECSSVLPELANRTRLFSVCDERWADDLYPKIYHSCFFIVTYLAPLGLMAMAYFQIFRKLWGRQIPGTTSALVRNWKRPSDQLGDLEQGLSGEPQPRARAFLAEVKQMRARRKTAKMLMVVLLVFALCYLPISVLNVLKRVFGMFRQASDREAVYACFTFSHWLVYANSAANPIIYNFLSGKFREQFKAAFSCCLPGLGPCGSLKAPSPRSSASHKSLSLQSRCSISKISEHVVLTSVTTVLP
In words: Homogeneous Time Resolved Fluorescence (HTRF)-based cell-based high throughput dose response assay for antagonists of the orexin 1 receptor (OX1R; HCRTR1). [Related pubchem assays (depositor defined):AID434989, AID435008, AID463079, AID485270, AID492963, AID492964, AID492965, AID493232, AID504717, AID504718]. In kind it is functional.

The target in experiment [12] is T2, Orexin/Hypocretin receptor type 1. The experiment is described as follows: Fluorescence-based cell-based high throughput dose response assay for antagonists of the orexin 1 receptor (OX1R; HCRTR1). [Related pubchem assays (depositor defined):AID434989, AID435008, AID463079, AID485270, AID492963, AID492964, AID492965, AID493232, AID504717, AID504718]. In kind it is functional.

The subject of a further experiment is CHO. The experiment is described as follows: cytotoxicity in TLR9-MyD88 CHO cells, dose response, cytotoxicity control for TLR9-MyD88 binding inhibitor project, cell-based, luminescence (AID 588339).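 Also: CHO cells stably coexpressing TLR9 and MyD88 fusions from primary screen; compound exposure lasted 48 hours before viability readout.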 Type of experiment: functional, hamster. The note with it: Cricetulus griseus.
For a further experiment, the target named is Beta Lactamase (Pseudomonas aeruginosa, UniProt Q932Y6). The experiment is described as follows: beta-lactamase reporter inhibitor potency, dose response, artefact control for TLR9-MyD88 binding inhibitor project, BLA reporter cells, FRET fluorescence (AID 588341).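 Also: cell based assay in CHO-K1 cells stably expressing beta-lactamase.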 In kind it is cell-based.
Beta Lactamase, sequence (Q932Y6 whole entry): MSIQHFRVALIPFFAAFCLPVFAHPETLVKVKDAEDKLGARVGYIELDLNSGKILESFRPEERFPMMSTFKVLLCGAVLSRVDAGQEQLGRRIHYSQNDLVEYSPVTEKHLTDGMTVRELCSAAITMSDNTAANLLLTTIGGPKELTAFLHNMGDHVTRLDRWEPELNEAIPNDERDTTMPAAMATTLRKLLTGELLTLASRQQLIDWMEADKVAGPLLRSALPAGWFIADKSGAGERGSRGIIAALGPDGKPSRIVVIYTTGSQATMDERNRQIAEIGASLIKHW
Experiment [13] deals with T3, Orexin receptor type 2 (Homo sapiens, UniProt O43614).
T3 sequence (O43614 whole entry): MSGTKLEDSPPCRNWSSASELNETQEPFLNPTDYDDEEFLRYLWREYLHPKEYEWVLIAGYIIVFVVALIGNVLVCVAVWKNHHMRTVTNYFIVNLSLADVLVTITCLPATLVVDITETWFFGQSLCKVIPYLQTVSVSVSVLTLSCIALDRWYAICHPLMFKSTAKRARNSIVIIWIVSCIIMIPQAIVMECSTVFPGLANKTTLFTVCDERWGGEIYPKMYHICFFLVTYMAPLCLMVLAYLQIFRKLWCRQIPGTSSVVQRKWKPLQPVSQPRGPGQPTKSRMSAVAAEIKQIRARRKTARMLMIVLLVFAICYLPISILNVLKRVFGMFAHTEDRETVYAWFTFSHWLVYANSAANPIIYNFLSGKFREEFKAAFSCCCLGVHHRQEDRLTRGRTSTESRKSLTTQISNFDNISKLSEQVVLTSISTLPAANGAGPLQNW
In words: Counterscreen assay for antagonists of the orexin 1 receptor (OX1R; HCRTR1): Fluorescence-based cell-based dose response assay for antagonists of the orexin 2 receptor (OX2R; HCRTR2), run by assay provider. In kind it is functional.

Experiment [14] concerns the target T3, Orexin receptor type 2. In words: Counterscreen assay for antagonists of the orexin 1 receptor (OX1R; HCRTR1): Homogeneous Time Resolved Fluorescence (HTRF)-based cell-based dose response assay for antagonists of the orexin 2 receptor (OX2R; HCRTR2), run by assay provider. In kind it is functional.
The target of the next experiment is T4, Coagulation factor XII (Homo sapiens, UniProt P00748).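 Also: activated factor XIIa alpha cleaving a fluorogenic AMC peptide substrate; inhibitor potency from loss of enzyme activity.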
T4 sequence (P00748 whole entry): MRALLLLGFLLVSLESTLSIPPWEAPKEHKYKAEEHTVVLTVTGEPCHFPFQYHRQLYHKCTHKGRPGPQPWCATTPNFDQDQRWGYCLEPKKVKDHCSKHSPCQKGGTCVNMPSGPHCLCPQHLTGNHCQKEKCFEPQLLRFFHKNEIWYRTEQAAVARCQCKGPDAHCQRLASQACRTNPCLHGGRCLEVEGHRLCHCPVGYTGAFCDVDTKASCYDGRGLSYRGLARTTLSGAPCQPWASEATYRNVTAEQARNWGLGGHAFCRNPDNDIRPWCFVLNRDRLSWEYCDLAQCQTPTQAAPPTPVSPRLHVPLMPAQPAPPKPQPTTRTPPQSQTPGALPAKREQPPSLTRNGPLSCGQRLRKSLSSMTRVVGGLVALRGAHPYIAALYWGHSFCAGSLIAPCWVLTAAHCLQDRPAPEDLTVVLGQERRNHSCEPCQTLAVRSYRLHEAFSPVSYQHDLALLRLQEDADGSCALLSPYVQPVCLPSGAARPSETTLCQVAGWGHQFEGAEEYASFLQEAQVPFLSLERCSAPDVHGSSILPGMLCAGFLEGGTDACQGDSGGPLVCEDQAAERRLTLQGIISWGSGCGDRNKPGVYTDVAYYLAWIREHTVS
Type of experiment: functional.

For the next experiment, the target named is Melanocortin receptor 4 (Homo sapiens, UniProt P32245). The experiment is described as follows: MC4R antagonist potency on cAMP, dose response, cell-based, TR-FRET, biased antagonists (AID 602298).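 Also: antagonist potency against agonist-stimulated cAMP production.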 In kind it is functional. In general terms: Time-resolved FRET reads energy transfer from a long-lived donor to a nearby acceptor.
Melanocortin receptor 4, sequence (P32245 whole entry): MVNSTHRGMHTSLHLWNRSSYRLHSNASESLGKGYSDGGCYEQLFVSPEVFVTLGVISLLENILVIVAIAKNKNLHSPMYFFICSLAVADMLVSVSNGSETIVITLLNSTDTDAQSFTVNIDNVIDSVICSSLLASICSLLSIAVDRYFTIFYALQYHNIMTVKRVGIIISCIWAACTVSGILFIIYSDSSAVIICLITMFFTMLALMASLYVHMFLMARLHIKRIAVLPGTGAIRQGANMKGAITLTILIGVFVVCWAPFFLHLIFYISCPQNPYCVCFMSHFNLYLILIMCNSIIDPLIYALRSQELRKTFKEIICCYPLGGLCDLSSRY
A short description of experiment [15]: nonselective inhibitors of cellular cAMP signaling, dose response, counter-screen for MC4R biased antagonist project, cell-based, TR-FRET cAMP detection (AID 602305).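 Also: U2OS cells stimulated with forskolin near its EC80 as the cAMP inducer; potency is for inhibition of forskolin-stimulated cAMP signaling.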 Type of experiment: functional.
The target in experiment [16] is Ras and Rab interactor 1/Tyrosine-protein kinase ABL1 (Homo sapiens, UniProt P00519+Q13671). Type of experiment: functional.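 Also: biochemical TR-FRET dose-response test measuring inhibition of binding between Rin1 and Abl proteins.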
Ras and Rab interactor 1/Tyrosine-protein kinase ABL1, sequence (P00519 whole entry, the tested form may be a part): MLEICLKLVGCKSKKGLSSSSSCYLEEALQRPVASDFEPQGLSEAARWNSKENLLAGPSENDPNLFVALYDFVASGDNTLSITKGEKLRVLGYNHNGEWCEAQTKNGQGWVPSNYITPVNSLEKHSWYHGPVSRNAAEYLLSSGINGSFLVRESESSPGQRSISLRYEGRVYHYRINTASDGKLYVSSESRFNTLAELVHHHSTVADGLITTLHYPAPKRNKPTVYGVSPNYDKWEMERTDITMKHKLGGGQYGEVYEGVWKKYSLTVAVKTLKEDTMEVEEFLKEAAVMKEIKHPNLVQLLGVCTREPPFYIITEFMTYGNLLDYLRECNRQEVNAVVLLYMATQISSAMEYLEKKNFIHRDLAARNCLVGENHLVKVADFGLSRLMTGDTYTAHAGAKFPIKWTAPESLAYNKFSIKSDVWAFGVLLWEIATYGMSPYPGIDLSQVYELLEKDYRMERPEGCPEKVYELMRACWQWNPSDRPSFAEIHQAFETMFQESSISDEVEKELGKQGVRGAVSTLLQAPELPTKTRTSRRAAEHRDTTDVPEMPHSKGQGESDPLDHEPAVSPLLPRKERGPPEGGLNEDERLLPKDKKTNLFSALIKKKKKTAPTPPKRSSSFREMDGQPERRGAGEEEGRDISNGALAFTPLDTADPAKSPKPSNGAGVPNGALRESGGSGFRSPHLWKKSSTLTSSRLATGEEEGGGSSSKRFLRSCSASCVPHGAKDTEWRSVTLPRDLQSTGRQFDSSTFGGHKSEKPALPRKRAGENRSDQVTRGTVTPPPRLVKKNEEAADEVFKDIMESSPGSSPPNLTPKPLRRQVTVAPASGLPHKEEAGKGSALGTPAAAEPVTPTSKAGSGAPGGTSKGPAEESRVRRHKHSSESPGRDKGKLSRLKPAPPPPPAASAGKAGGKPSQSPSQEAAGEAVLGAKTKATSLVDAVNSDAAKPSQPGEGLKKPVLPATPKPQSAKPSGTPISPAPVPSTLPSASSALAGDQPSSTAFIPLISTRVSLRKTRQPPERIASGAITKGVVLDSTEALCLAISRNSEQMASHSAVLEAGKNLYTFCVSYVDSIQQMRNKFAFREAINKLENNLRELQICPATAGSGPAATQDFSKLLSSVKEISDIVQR
Ras and Rab interactor 1/Tyrosine-protein kinase ABL1, sequence (Q13671 whole entry, the tested form may be a part): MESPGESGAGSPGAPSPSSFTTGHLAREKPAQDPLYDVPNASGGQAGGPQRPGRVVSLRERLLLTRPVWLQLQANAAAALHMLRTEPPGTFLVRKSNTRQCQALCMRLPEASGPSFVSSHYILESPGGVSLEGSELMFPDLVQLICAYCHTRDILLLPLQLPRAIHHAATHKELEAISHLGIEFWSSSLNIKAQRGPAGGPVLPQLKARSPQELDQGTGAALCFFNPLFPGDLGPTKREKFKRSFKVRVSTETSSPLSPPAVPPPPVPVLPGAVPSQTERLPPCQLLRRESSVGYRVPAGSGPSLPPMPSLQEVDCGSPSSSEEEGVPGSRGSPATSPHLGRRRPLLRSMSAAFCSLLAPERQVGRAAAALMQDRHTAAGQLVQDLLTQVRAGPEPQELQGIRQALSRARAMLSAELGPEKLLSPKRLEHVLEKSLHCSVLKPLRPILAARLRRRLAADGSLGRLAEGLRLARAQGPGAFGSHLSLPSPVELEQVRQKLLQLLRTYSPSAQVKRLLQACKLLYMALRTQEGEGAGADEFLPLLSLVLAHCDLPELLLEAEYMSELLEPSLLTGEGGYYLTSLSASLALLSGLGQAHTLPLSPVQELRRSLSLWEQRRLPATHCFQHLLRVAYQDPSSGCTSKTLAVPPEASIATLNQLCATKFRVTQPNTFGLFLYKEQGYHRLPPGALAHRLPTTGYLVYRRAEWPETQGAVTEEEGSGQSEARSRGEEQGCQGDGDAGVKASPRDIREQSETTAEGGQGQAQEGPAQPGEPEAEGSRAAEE
The nature of experiment [17]: CAL PDZ domain peptide-binding inhibitors, dose response, biochemical, fluorescence polarization, untagged CAL PDZ, cherry-pick, set 2 (AID 602254). Type of experiment: functional.
Another experiment concerns the target Aurora kinase A (Homo sapiens, UniProt O14965). Type of experiment: functional.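 Also: value from the Navigating the Kinome kinase panel profiling, panel entry STK6.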
The target in the next experiment is Aurora kinase B (Homo sapiens, UniProt Q96GD4). In kind it is functional.
Aurora kinase B, sequence (Q96GD4 whole entry): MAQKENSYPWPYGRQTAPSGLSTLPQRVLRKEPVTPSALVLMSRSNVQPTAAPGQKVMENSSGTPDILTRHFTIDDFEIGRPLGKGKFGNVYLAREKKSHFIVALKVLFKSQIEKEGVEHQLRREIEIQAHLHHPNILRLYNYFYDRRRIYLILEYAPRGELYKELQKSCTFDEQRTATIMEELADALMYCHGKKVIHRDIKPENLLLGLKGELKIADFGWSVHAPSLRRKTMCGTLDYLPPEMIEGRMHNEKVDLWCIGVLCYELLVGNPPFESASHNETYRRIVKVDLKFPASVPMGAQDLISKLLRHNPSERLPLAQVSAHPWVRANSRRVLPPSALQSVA
Experiment [18] deals with ALK tyrosine kinase receptor (Homo sapiens, UniProt Q9UM73). In kind it is functional.

Aurora kinase A, sequence (O14965 whole entry): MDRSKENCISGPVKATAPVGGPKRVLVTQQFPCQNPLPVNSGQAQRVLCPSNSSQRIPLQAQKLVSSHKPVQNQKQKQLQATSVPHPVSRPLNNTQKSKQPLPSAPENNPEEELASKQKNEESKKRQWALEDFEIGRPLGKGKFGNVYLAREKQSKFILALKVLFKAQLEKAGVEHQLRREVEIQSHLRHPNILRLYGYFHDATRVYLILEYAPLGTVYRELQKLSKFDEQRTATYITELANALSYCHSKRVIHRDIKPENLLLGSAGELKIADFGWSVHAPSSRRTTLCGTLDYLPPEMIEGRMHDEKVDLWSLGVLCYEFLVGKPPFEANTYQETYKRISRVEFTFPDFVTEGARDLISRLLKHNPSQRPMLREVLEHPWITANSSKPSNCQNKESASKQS
Paired box protein Pax-8, sequence (Q06710 whole entry): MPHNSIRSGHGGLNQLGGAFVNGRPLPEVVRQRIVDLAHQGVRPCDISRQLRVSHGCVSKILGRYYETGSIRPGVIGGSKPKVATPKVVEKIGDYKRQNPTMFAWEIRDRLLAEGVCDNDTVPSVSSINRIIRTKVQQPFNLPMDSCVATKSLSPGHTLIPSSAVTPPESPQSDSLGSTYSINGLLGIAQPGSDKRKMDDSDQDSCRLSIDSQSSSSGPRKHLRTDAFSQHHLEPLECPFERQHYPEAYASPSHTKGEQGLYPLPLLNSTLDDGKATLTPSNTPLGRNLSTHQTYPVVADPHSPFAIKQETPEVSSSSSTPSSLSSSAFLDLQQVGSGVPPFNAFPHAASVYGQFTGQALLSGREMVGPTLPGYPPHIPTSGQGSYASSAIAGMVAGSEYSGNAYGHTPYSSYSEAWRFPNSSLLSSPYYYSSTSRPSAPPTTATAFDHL

For the compound `CCOCCn1c(CN2CCN(c3ccc(F)cc3)CC2)nc2c1c(=O)n(C)c(=O)n2C`, the half-maximal inhibitory concentration (IC50) is 7.77 µM (active) in experiment [1] and 4.01 µM (active) in [2].

For the compound `Cc1ccc(S(=O)(=O)CCC(=O)c2ccc(O)cc2O)cc1`, the EC50 in [3] was 9.12 µM (active); in [4], 8.8 µM (active). Further, the AC50 in experiment [5] was 15.6 µM (active); on Paired box protein Pax-8, 4.59 µM (active).

As to `Cn1cnnc1Sc1ccc(/C=C/C(=O)c2ccc(O)cc2)cc1[N+](=O)[O-]`, the AC50 in [5] was 0.422 µM (active); in [6], 8.44 µM (active).

Consider `CCN(CC)c1ccc2cc(-c3nc4ccccc4n3C)c(=O)oc2c1`, for which the figures for the EC50 (in the experiment on BJ [7]; in the experiment on BJ [8]; in experiment [9]) were < 120 nM (active), 345 nM (active) and 185 nM (active), respectively. Besides, the IC50 in the experiment on CHO-K1 is > 66.2 µM (inactive); in [10], > 49.8 µM (inactive); in experiment [11], 1.14 µM (active); in experiment [12] it was 1.77 µM (active); with CHO it was 29.4 µM (inactive); on Beta Lactamase it was 2.56 µM (active). For the same compound, the IC50 on Orexin receptor type 2 [13] was 32 µM (inactive); on Orexin receptor type 2 [14], > 50 µM (inactive).

For `O=C(Nc1nnc(-c2ccccc2)s1)c1cc(S(=O)(=O)N2CCOCC2)c(Cl)cc1Cl`, the results for the IC50 (on Coagulation factor XII; on Melanocortin receptor 4; in experiment [15]) were > 50 µM (inactive), > 2.39 µM (active) and > 64.6 µM (inactive), respectively.

On to `COc1cc(C(=O)OCC(=O)Nc2ccc(S(=O)(=O)N3CCCC3)cc2)cc(OC)c1OC`, for which, in experiment [16], the IC50 was 12.4 µM (inactive).

On to `COc1ccccc1N(CCOc1ccccc1)S(=O)(=O)c1ccccc1`, for which the AC50 in experiment [17] was 77.2 µM (active).

With `CCc1cccc(NC(=O)Nc2ccc(-c3c(C)oc4ncnc(N)c34)cc2)c1`, the Ki on Aurora kinase A was 158 nM (active); on Aurora kinase B, 15.8 nM (active).

For `CCc1cccc(NC(=O)Nc2ccc(-c3csc4c(-c5cnn(C)c5)cnc(N)c34)cc2)c1`, the values for the Ki (in [18]; at Aurora kinase A) were 25.1 nM (active) and 7.94 nM (active), respectively.

The values are drawn from ChEMBL document CHEMBL1201862, “PubChem BioAssay data set” (2004).
